Assay results: publication PMC11931565, “Exploring medium and long arm extensions of 1,2,4-triazole derivatives as Candida albicans 14α-demethylase (CYP51) inhibitors” (RSC Medicinal Chemistry, 2025)
Converted amounts (≈) assume the structure as drawn. Numbered stars: 1 amine (or outer) side, 2 acyl side, 3 side chain; on linkers, the order of the positions; unused ones are H or OH. Bridge positions count the residues as written; N and C are the ends. Square brackets hold non-standard residues; d marks the D form. Peptide text beside a SMILES is read from it. * marks the point of attachment. hTyr(3S-OH,4S-OH,3'-OSO3H) = N[C@H](C(=O)O)[C@H](O)[C@@H](O)c1ccc(O)c(OS(=O)(=O)O)c1; Orn(4R-OH,5R-OH) = O=C([C@H](C[C@@H](O)[C@@H](O)N[*:3])N[*:1])[*:2]; Pro(3S-OH,4S-Me) = C[C@H]1CN[C@H](C(=O)O)[C@H]1O; X1 = CCCCCOc1ccc(-c2cc(-c3ccc(C(=O)*)cc3)no2)cc1; Gln(3R-OH) = NC(=O)C[C@@H](O)[C@H](N)C(=O)O; Hyp = O=C(O)[C@@H]1C[C@@H](O)CN1

How the values were obtained:
[1] = tested on: C. albicans laboratory strain SC5314; test: C. albicans susceptibility testing (CLSI broth microdilution MIC), strain SC5314; format: cell-based, Candida albicans; conditions: RPMI 1640, 37 °C, read at 48 h; for MIC: Candida albicans, SC5314, 48 h
Excerpt: (§1) Each novel compound was screened against C. albicans wild-type clinical isolate CA14 and C. albicans laboratory strain SC5314 using the standardised CLSI M27-S4 broth dilution method.[28] […] This might be explained by the clog P data as the more lipophilic compounds should more readily penetrate the fungal membrane resulting in improved uptake or may relate to optimal fill of the small hydrophobic pocket leading to improved binding.
(§2) Antifungal MIC values were obtained according to the CLSI microdilution method for yeasts.[28]C. albicans strains CA14 and SC5314 were tested in triplicate. Cultures were diluted to 2.5 × 10^3 cells per mL in RPMI 1640 (Sigma), buffered with 0.165 M MOPS, pH 7.0. Antifungal compounds were dissolved in DMSO and added at a final concentration of 1% v/v DMSO. Plates were incubated at 37 °C and read at 48 h.

native CaCYP51 = target: T1, native CaCYP51 (Candida albicans, UniProt P10613); test: CaCYP51 type II ligand binding affinity (Kd) from difference spectra saturation curves; conditions: 2.5 μM native CaCYP51; mean ± SD of three titrations; read-out: K d
T1 construct: made in house; host or cells: E. coli
T1 sequence (P10613 whole entry): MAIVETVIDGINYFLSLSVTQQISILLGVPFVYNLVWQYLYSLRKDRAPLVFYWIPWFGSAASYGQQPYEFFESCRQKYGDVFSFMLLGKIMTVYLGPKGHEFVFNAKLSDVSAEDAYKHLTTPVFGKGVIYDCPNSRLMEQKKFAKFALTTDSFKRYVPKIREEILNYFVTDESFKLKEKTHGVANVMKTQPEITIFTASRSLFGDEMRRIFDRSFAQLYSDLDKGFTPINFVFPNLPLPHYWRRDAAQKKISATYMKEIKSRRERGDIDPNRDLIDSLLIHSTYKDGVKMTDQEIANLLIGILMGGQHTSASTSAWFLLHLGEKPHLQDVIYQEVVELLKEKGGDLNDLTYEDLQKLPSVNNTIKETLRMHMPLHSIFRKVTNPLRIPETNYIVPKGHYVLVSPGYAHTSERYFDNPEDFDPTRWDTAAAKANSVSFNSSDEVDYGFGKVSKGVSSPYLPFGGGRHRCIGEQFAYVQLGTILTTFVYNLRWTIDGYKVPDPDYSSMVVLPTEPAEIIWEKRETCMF
Protocol: Azole titration was performed in triplicate.
The ligand–CaCYP51 complex was determined by non-linear regression (Levenberg–Marquardt algorithm) using a rearrangement of the Morrison equation for tight ligand binding,[38] while weak ligand binding was calculated by the Michaelis–Menten equation. Curve fitting for novel azole saturation curves was performed using the computer program ProFit 6.1.12 (QuantumSoft, Zurich, Switzerland) for Mac OSX. Kd values were determined for each of the three replicate titrations per azole compound and then mean Kd values and standard deviations calculated.

[2] = target: T2, C. albicans CYP51 (CaCYP51) (Candida albicans, UniProt P10613); test: CaCYP51 reconstitution assay (IC50); format: biochemical; conditions: 1 μM CaCYP51, 60 μM lanosterol, 15 min at 37 °C
T2 construct: made in house; host or cells: E. coli
T2 sequence (P10613 whole entry): as above
Protocol: Derivatives with a MIC <1 μg mL^−1 were chosen for IC50 testing.
C. albicans CYP51 was overexpressed in E. coli and purified and CaCYP51 reconstitutions assays performed.[10,37] The final reaction volume of 500 μL, contained; 1 μM C. albicans CYP51, 2 μM Homo sapiens cytochrome P450 reductase (CPR) (UniProtKB accession number P16435), 60 μM lanosterol, 50 μM dilaurylphosphatidylcholine, 4% w/v 2-hydroypropyl-cyclodextrin, 0.4 mg mL^−1 isocitrate dehydrogenase, 25 mM trisodium isocitrate, 50 mM NaCl, 5 mM MgCl2, and 40 mM MOPS (morpholinepropanesulfonic acid, pH 7.2). Antifungal compounds were added in 2.5 μL DMSO. The reaction was started by the addition of 4 mM NADPH-tetrasodium salt. Samples were shaken for 15 min at 37 °C and sterol metabolites extracted with ethyl acetate and derivatised with BSTFA.

[3] = tested on: C. albicans wild-type clinical isolate CA14; test: C. albicans susceptibility testing (CLSI broth microdilution MIC), strain CA14; format: cell-based, Candida albicans; conditions: RPMI 1640, 37 °C, read at 48 h; for MIC: Candida albicans
Excerpt: as §1, §2

[4] = tested on: S. cerevisiae Y570 overexpressing C. albicans ABC transporter CDR1B; test: MIC, recombinant S. cerevisiae strain Y570 CaCDR1B; format: cell-based; conditions: SD medium pH 6.8, 30 °C; 80% inhibition of growth
Protocol: (§3) The most promising thiazole derivative 7b, and the extended amide derivatives 13a and 13b were evaluated against a panel of recombinant S. cerevisiae strains[24,31,32] expressing control levels of wild-type CYP51 (ScCYP51), overexpressed wild-type ScCYP51, overexpressed azole-resistant ScCYP51 Y140F/H mutations (S. cerevisiae Y140 equivalent to C. albicans Y132), overexpressed C. albicans efflux pumps MDR1a or CDR1B and overexpressed H. sapiens wild-type CYP51 (HsCYP51) (Table 3) at 24 and 48 h with each assay performed in triplicate.
(§4) Minimum inhibitory concentration (MIC) were determined according to recommendations outlined in the Clinical and Laboratory Standards Institute (CLSI) document M27-Ed4E[39] with modifications. Sabouraud dextrose (SD) medium (pH 6.8) was used instead of RPMI-1640 for inoculum and growth of the S. cerevisiae strains and cultures were incubated at 30 °C. […] Stock solutions of each agent were prepared in DMSO and the final concentration of DMSO was 1% (v/v) in SD. […] The final concentration of all other compounds ranged from 0.03–16 μg mL^−1. Three biological repeats were performed.

[5] = tested on: S. cerevisiae Y2411 parent (control levels of wild-type ScCYP51); test: MIC, recombinant S. cerevisiae strain Y2411 parent; format: cell-based; conditions: Saccharomyces cerevisiae, pH 6.8, read-out: MIC Y2411 parent
Protocol: as §3, §4

[6] = tested on: S. cerevisiae Y525 overexpressing C. albicans MFS transporter MDR1a; test: MIC, recombinant S. cerevisiae strain Y525 CaMDR1a; format: cell-based; conditions: SD medium pH 6.8, 30 °C; 80% inhibition of growth
Protocol: as §4

[7] = tested on: S. cerevisiae Y2760 overexpressed H. sapiens wild-type CYP51 (HsCYP51); test: MIC, recombinant S. cerevisiae strain Y2760 HsCYP51; format: cell-based; conditions: Saccharomyces cerevisiae, pH 6.8, read-out: MIC Y2760 HsCYP51
Protocol: as §3
The HsCYP51 ORF (NP_000777.1) was codon harmonized (ch) using DNA 2.0 for expression in S. cerevisiae and synthesized by ATUM (Newark, Ca, USA). The 3′ end of the ORF was extended to encode EQKI of the ScErg11 C-terminus, followed by a GGR linker and a 6xHis tag. Strain Y2514 was prepared by transforming host strain Y1857 with a transformation cassette including the above construct together with the ScPGK transcription terminator and URA3 selection marker located downstream, bordered by upstream and downstream parts of ScPDR5 gene identical to sequences in ScErg11 over-expressing strain Y941. Strain Y2514 constitutively overexpressed HsCYP51ch-6xHis and URA3 from the ScPDR5 locus.
Strain Y2757 (Y2514, PDR15::HsCPRch-6xHis-LoxP-HIS1-LoxP) was prepared by co-expressing the cognate reductase HsCRP in strain Y2514. Codon harmonisation and synthesis of human NADPH-cytochrome P450 reductase isoform 2 (HsCPRch, NP_001369584.1) ORF was performed by ATUM. The gene was 3′ extended with a sequence encoding GGR-6xHIS. A transformation cassette was prepared by recombinant PCR to include the HsCPRch ORF with 657 nucleotides the ScPDR5 promoter upstream, and the ScPGK terminator followed by the LoxP flanked ScHIS1 selection marker downstream. ScPDR15 specific arms bordering the construct enabled the cassette to be integrated between the nucleotide 441 of the 5′ UTR and nucleotide 1 of the 3′ UTR in PDR15.
Strain Y2758 (Y2757 ΔHIS1) was made using the following steps. Strain Y2757 was transformed with the pSH69 pGAL1-cre plasmid (Euroscarf, Germany) via selection on hygromycin (75 μg mL^−1) containing YPD plates. A single hygromycin positive colony was inoculated in 1% yeast extract, 2% peptone and 2% of galactose broth and incubated for 16 hours at 30 °C with shaking. The diluted culture was then plated on YPD agar and replica-plated on YPD + hygromycin and SD-HIS dropout agar plates. Deletion of the HIS selection marker downstream of HsCPRch-6xHis in the PDR15 locus was confirmed in double His and hygromycin negative isolates by PCR and DNA sequence analysis.
The endogenous ScERG11 ORF in strain Y2758 was removed by transforming with a LoxP- ScHIS1 containing cassette with arms complementing from +387 nucleotides in the 5′UTR and −60 nucleotides in the 3′UTR of the ScERG11 locus, resulting in strain Y2760 (ADΔΔ PDR5::HsCYP51ch-6×HIS-URA3; PDR15::HsCPRch6×HIS-LoxP, ΔERG11-LoxP-HIS1-LoxP).
as §4

[8] = tested on: S. cerevisiae Y2513 overexpressed ScCYP51 Y140H; test: MIC, recombinant S. cerevisiae strain Y2513 Y140H; format: cell-based; conditions: Saccharomyces cerevisiae, pH 6.8, read-out: MIC Y2513 Y140H
Protocol: as §3, §4

[9] = tested on: S. cerevisiae Y2300 overexpressed wild-type ScCYP51; test: MIC, recombinant S. cerevisiae strain Y2300 ScCYP51; format: cell-based; conditions: Saccharomyces cerevisiae, pH 6.8, read-out: MIC Y2300 ScCYP51
Protocol: as §3, §4

[10] = tested on: S. cerevisiae Y2301 overexpressed ScCYP51 Y140F; test: MIC, recombinant S. cerevisiae strain Y2301 Y140F; format: cell-based; conditions: Saccharomyces cerevisiae, pH 6.8, read-out: MIC Y2301 Y140F
Protocol: as §3, §4

## O=C(NCC(O)(Cn1cncn1)c1ccc(Cl)cc1Cl)c1ccc(NS(=O)(=O)c2ccc(Cl)cc2)cc1 (stereo not shown) [14b, 4-((4-Chlorophenyl)sulfonamido)-N-(2-(2,4-dichlorophenyl)-2-hydroxy-3-(1H-1,2,4-triazol-1-yl)propyl)benzamide]
[1]
  MIC: 0.25 µg/mL (≈ 0.43 µM)
Native CaCYP51
  Kd: 94 ± 24 nM
[2]
  IC50: 780 nM
[3]
  MIC: 0.25 µg/mL (≈ 0.43 µM)

## O=C(Nc1ccc(Cl)cc1)Nc1ccc(C(=O)NCC(O)(Cn2cncn2)c2ccc(Cl)cc2)cc1 (stereo not shown) [12a, N-(2-(4-Chlorophenyl)-2-hydroxy-3-(1H-1,2,4-triazol-1-yl)propyl)-4-(3-(4-chlorophenyl)ureido)benzamide]
[1]
  MIC: 2 µg/mL (≈ 3.81 µM)
[3]
  MIC: 1 µg/mL (≈ 1.9 µM)

## O=C(Nc1ccc(Cl)cc1)Nc1ccc(C(=O)NCC(O)(Cn2cncn2)c2ccc(Cl)cc2Cl)cc1 (stereo not shown) [12b, 4-(3-(4-Chlorophenyl)ureido)-N-(2-(2,4-dichlorophenyl)-2-hydroxy-3-(1H-1,2,4-triazol-1-yl)propyl)benzamide]
[1]
  MIC: 0.125 µg/mL (≈ 0.223 µM)
Native CaCYP51
  Kd: 137 ± 14 nM
[2]
  IC50: 470 nM
[3]
  MIC: 0.125 µg/mL (≈ 0.223 µM)

## O=C(NCC(O)(Cn1cncn1)c1ccc(Cl)cc1)c1ccc(NS(=O)(=O)c2ccc(Cl)cc2)cc1 (stereo not shown) [14a, N-(2-(4-Chlorophenyl)-2-hydroxy-3-(1H-1,2,4-triazol-1-yl)propyl)-4-((4-chlorophenyl)sulfonamido)benzamide]
[1]
  MIC: 1 µg/mL (≈ 1.83 µM)
[3]
  MIC: 1 µg/mL (≈ 1.83 µM)

## CCCCCOc1ccc(-c2cc(-c3ccc(C(=O)N[C@H]4C[C@@H](O)[C@@H](O)NC(=O)[C@@H]5[C@@H](O)[C@@H](C)CN5C(=O)[C@H]([C@H](O)CC(N)=O)NC(=O)[C@H]([C@H](O)[C@@H](O)c5ccc(O)c(OS(=O)(=O)O)c5)NC(=O)[C@@H]5C[C@@H](O)CN5C(=O)[C@H]([C@@H](C)O)NC4=O)cc3)no2)cc1 [Micafungin, reference compound] (X1-[Orn(4R-OH,5R-OH)]T[Hyp][hTyr(3S-OH,4S-OH,3'-OSO3H)][Gln(3R-OH)][Pro(3S-OH,4S-Me)]; lactam 1-C)
[4]
  MIC: 0.125 µg/mL
[5]
  MIC: 0.125 µg/mL
[6]
  MIC: 0.125 µg/mL
[7]
  MIC: 0.125 µg/mL
[8]
  MIC: 0.125 µg/mL
[9]
  MIC: 0.125 µg/mL
[10]
  MIC: 0.125 µg/mL

## CC(=O)c1cccc(C(=O)NCC(O)(Cn2cncn2)c2ccc(Cl)cc2Cl)c1 (stereo not shown) [6b, 3-Acetyl-N-(2-(2,4-dichlorophenyl)-2-hydroxy-3-(1H-1,2,4-triazol-1yl)propyl)benzamide]
[1]
  MIC: < 0.03 µg/mL
  MIC SC5314: 0.06 µg/mL (≈ 0.138 µM)
Native CaCYP51
  Kd: 229 ± 45 nM
[2]
  IC50: 490 nM
[3]
  MIC: < 0.03 µg/mL
  MIC CA14: <0.03 µg/mL
